Assay results from the Kinase Knowledgebase extract (Sharma et al. 2016).

molecular target: PIK3CG (human) (UniProt P48736); test: Assessment of PIK3CG Kinase Activity
Sequence (P48736 whole entry, looked up): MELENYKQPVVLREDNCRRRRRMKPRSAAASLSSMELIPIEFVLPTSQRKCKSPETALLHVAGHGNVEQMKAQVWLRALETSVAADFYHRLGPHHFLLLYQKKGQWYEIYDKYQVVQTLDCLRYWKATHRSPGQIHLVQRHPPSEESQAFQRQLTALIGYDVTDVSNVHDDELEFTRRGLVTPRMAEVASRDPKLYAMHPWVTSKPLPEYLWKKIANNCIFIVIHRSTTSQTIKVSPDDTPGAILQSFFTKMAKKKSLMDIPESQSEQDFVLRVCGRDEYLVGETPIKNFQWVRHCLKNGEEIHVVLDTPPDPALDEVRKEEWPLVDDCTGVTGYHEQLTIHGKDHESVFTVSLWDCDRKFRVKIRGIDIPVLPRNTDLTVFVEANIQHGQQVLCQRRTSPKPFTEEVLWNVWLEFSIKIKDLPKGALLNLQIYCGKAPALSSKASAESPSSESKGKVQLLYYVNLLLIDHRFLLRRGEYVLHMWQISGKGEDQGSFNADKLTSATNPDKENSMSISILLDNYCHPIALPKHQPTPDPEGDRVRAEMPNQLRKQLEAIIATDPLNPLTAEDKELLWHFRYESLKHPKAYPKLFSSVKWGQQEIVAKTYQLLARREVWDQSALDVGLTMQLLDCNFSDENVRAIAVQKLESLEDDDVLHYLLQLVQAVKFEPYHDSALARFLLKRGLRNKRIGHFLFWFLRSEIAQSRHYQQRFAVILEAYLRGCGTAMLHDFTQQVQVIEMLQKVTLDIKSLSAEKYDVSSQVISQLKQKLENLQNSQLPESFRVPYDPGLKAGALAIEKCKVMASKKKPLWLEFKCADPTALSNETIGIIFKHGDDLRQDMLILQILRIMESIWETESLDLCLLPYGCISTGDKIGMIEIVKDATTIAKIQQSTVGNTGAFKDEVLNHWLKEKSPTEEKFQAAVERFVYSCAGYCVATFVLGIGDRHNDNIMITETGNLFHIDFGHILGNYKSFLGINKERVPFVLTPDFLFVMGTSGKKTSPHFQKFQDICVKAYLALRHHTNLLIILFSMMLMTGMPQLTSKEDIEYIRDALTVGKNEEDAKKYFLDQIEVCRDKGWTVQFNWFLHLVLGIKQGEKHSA

Going from `COc1ccc2sc(C(=O)Nc3nnn[nH]3)c(Sc3cccc(C(F)(F)F)c3)c2c1F` to `COc1ccc2sc(C(=O)Nc3nnn[nH]3)c(Sc3ccc(CC(=O)O)cc3)c2c1F`, the IC50 rises from 11000 nM to 19400 nM (1.8-fold).

First: COc1cc2c(O[C@@H]3CCC[C@@H](C)C3)c(C(=O)Nc3nn[nH]n3)sc2cc1F
Second: COc1cc2c(O[C@@H]3CCC[C@H](C)C3)c(C(=O)Nc3nn[nH]n3)sc2cc1F
The IC50 of the first is 9.2-fold higher: 35 nM for the first, 3.8 nM for the second.

First: COc1cc2c(Sc3ccc(Cl)cc3)c(C(=O)Nc3nnn[nH]3)sc2cc1F
Second: COc1cc2c(SC3CCCCC3)c(C(=O)Nc3nnn[nH]3)sc2cc1F
The IC50 of the first is 3.8-fold higher: 45.5 nM for the first, 12 nM for the second.

Compared with `COc1ccc2sc(C(=O)Nc3nnn[nH]3)c(SC(c3ccccc3)C(C)N(C)C(C)=O)c2c1F` (configuration not stated), `COc1ccc2sc(C(=O)Nc3nnn[nH]3)c(Sc3ccc(C4CCCCC4)cc3)c2c1F` is 40-fold lower in IC50: 20000 nM for the first, 505 nM for the second.

First: COc1cc2c(Oc3ccccc3)c(C(=O)Nc3nn[nH]n3)sc2cc1F
Second: COc1cc2c(OCC3(C)CC3)c(C(=O)Nc3nn[nH]n3)sc2cc1F
The IC50 of the first is 1.8-fold higher: 24.5 nM for the first, 14 nM for the second.

First: COc1ccc2c(SC3CCCCC3)c(C(=O)Nc3nnn[nH]3)sc2c1F
Second: COc1cc2c(OC3CCN(C(=O)OC(C)(C)C)CC3)c(C(=O)Nc3nn[nH]n3)sc2cc1F
The IC50 of the first is 1.7-fold higher: 27 nM for the first, 16 nM for the second.
